# Measurements as given in article PMC10517971, “An inverse agonist of orphan receptor GPR61 acts by a G protein-competitive allosteric mechanism” (Nature Communications, 2023).
# Assays:
# Human PDE11A4 = Human PDE11A4 (Homo sapiens, UniProt Q9HCR9); test: Phosphodiesterase Assay (SPA); format: biochemical
# BRD4 = BRD4 (Homo sapiens, UniProt O60885); test: Bromodomain-Containing Protein 4 (BRD4) fluorescence polarization Binding Assay
# Procedure: 45 37 °C for 30 min (DAT) or 60 min (NET and SER T). The plate is transferred to the FLIPR Tetra®
# 46 instrument and the fluorescence of each well was measured (Ex 470- 495 […]).
# 47 The level of fluores cenc e measured dire ctly relates to the level of uptake of the dye labelled amine,
# 48 with a reduction in levels being related to an inhibition of the respective transporter.
# 49 Phosphodiesterase Assays
# 50 The phosphodiesteras e (P DE) assays m easure the conversion of 3’, 5 ’ -[3H ] cAMP to 5’-[3H] AMP
# 51 (for PDE 3A1 and 4D3) or 3’, 5’-[3H] cGMP to 5’-[3H] GMP (for 5A1) by the relevant PDE
# 52 enzyme subtype. Yttrium silicate (YSi) scintillation proximity (SPA) beads bind selectively to 5’-
# 53 [3H] AMP or 5’-[3H] GMP, with the magnitude of radioactive counts being directly related to
# 54 PDE enzymatic activity. The ass ay was performed in white walled op aque b ottom 384-well plates.
# 55 Test compound (1 µL) in dimethyl sulfoxide was added to each well. Enzyme solution was then […]
# 60 Waltham, MA). Followin g an additional 8 h incubation period the plates were read on a MicroBeta […]
# 71 temperature fluorescence polarization measurements were made using an Envision plate reader […]
# 76 of the product color, measured at 405 nm, is proportionate to the enzyme activity in the sample. […]
# 81 read at the 20 min time point. […]
# Chain of Human PDE11A4 (Q9HCR9 whole entry): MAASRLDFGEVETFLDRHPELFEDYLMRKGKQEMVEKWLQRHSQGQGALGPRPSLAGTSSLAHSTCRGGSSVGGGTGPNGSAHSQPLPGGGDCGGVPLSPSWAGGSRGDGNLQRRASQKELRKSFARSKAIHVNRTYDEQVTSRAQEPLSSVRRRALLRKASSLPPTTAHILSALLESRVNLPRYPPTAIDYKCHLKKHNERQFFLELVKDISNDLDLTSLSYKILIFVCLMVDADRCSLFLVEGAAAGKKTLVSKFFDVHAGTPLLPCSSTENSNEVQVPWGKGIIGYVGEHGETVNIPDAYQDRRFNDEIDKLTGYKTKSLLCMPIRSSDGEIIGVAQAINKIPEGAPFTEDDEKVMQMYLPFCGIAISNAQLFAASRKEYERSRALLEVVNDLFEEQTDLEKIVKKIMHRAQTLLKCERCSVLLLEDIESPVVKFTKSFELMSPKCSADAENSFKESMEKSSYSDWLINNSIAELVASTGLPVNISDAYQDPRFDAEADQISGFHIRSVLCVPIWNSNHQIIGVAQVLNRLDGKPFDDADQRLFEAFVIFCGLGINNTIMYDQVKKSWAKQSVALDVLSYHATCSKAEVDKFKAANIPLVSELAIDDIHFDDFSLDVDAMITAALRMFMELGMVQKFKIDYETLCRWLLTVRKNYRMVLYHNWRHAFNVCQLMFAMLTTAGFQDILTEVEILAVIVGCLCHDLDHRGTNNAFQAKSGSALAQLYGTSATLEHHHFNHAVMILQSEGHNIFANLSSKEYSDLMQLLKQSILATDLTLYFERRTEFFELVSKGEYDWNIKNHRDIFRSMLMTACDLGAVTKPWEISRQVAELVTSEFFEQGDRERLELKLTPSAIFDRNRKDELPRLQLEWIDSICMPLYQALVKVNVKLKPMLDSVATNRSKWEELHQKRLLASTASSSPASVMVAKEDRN
smiles,measurement,setting,value
CCOc1cc(C)nc(N(CCOC)S(=O)(=O)c2ccc(NCc3c(F)cncc3F)nc2OC)n1 [Compound 1],IC50,Human PDE11A4,> 40 µM
same,IC50,BRD4,> 25 µM
